Data published in patent publication US20100218415A1, “HYDROXYMETHYLFURFURAL ETHERS FROM SUGARS AND HIGHER ALCOHOLS” (FURANIX TECHNOLOGIES B.V., priority 2007, published 2010).
Read-outs that look alike come from different tables or passages of the source.

Assay: Fuel solubility: blends with commercial diesel
Format: physicochemical
Source text: Fuel solubility is a primary concern for diesel fuel applications. Not all highly polar oxygenates have good solubility in the current commercial diesel fuels.

miscibility with commercial diesel (5 vol % blend with commercial diesel) | miscibility with commercial diesel (25 vol % blend with commercial diesel) | miscibility with commercial diesel (40 vol % blend with commercial diesel) | miscibility with commercial diesel | SMILES
completely miscible | phase separation occurs | phase separation occurs |  | CCOCc1ccc(C=O)o1 [EMF, ethoxymethylfurfural]
 |  |  | completely miscible | CCCCCCCCOCc1ccc(C=O)o1 [OMF, 5-(octyloxymethyl)furfural]
